From patent publication US6939686B2, “Methodology of using raman imaging microscopy for evaluating drug action within living cells” (Southwest Research Institute, priority 2000, dated 2005)

Test system: MDA435 breast cancer cells
Experiment: Ratio Raman imaging of drug uptake and distribution in a single living cell
Assay type: cell-based
Experimental: Raman imaging of the cell-drug interactions consists of several steps. First, the Raman spectrum of the drug is measured. From the Raman spectrum, the locations and relative intensities of the Raman peaks (or Raman modes) is determined. The combination of the multiple Raman peaks and their relative intensities provides a unique fingerprint of the drug. In the preferred embodiment, the Raman spectrum of the anticancer drug taxol was measured as illustrated in FIG. 1. From the spectrum the most significant Raman mode is 1002 cm^−1.
In the preferred embodiment the Raman signal of a breast tumor cell was studied and the Raman spectrum was measured. […] The laser beam was focused in the cell cytoplasm and nucleus areas to determine if there was any difference in their spectra. Each measurement was 120 seconds long. FIGS. 2 and 3 illustrate the Raman spectra of the cytoplasm and nucleus of the breast tumor cell, respectively. […]
The acquired Raman images are then processed by smoothing noises, de-blurring, and removing the intensity contributed from the fluorescence. […]
The restored Raman signal still contained the non-uniform illumination effect and fluorescent contribution, illustrated as follows: s(x,y)=K(x,y)·i(x,y)·t+Ko(x,y)·i(x,y)·t. From the Raman spectra illustrated in FIGS. 1-3, Raman peaks are riding on a broadband baseline that is contributed from the fluorescence. […]

CC(=O)O[C@H]1C(=O)[C@@]2(C)[C@H]([C@H](OC(=O)c3ccccc3)[C@]3(O)C[C@H](OC(=O)[C@H](O)[C@@H](NC(=O)c4ccccc4)c4ccccc4)C(C)=C1C3(C)C)[C@]1(OC(C)=O)CO[C@@H]1C[C@@H]2O [taxol]
drug distribution within the cell (ratio Raman image at 1002 cm^−1) (breast tumor cell exposed to 0.3 mg/ml taxol solution for one hour, FIG. 5(b)): taxol entered the tumor cell from the top membrane and gradually penetrated into the center of the cell
drug distribution at different depths of the cell (stack of ratio Raman images) (breast tumor cell treated with 0.3 mg/ml taxol solution for one hour, FIG. 7): More drug entered the cell from the middle layer (Z=6 μm)
